Where two headings read alike, the source gives them in different places.
How the values were obtained:
hENPP1 enzyme = hENPP1 enzyme (Homo sapiens (Human), UniProt P22413); experiment: ENPP1 enzymatic inhibition in biochemical assay (TMP-pNP hydrolysis, OD405); conditions: ENPP1 enzymatic inhibition activity, TMP-pNP substrate, pH 9.5
Excerpt: ENPP1 was a transmembrane glycoprotein capable of hydrolyzing nucleotides and derivatives with a nucleotide-5′-monophosphate structure. ENPP1 was capable of hydrolyzing artificial thymidine 5′-monophosphate p-nitrophenyl ester (TMP-pNP) into nucleotide 5′-monophosphate and p-nitrophenol which was a chromogenic product. The formation amount of p-nitrophenol product could be directly measured by its absorbance at 405 nm, which was directly proportional to the enzyme activity.
The compound was dissolved in DMSO, with stock concentration of 1 mM, and diluted in a 4-fold serial gradient to make 10 concentration points. Echo was used to transfer 300 nL of gradient concentrations of compound to a 384-well assay plate (final concentration: starting at 10 μM, 4-fold serial gradient dilution, 10 concentration points). First, 15 μL of 0.2 ng/uL hENPP1 enzyme (2× final concentration) prepared in assay buffer (250 mM NaCl, 50 mM Tris, pH=9.5) was added to each well. Then, 15 μL of 400 μM TMP-pNP (2× final concentration) diluted in assay buffer was added. After incubating at 37° C. for 0.5 hrs, the OD405 nm value was read by the microplate reader. The percentage inhibition was calculated using the formula: % Inhibition Rate=(ODhigh signal control−ODsample well)/(ODhigh signal control−ODlow signal control)*100. The IC50 value was calculated using four-parameter fit. The high signal control was the DMSO group without inhibitors, and the low signal control was the blank control group.

[1] = target: ENPP1 in cultured MDA-MB-231 cells (Homo sapiens (Human), UniProt P22413); experiment: ENPP1 enzymatic inhibition in cellular assay (MDA-MB-231 cells, TMP-pNP); assay type: cell-based; conditions: ENPP1 enzymatic inhibition activity at the cellular level
Chain of ENPP1 in cultured MDA-MB-231 cells (P22413 whole entry): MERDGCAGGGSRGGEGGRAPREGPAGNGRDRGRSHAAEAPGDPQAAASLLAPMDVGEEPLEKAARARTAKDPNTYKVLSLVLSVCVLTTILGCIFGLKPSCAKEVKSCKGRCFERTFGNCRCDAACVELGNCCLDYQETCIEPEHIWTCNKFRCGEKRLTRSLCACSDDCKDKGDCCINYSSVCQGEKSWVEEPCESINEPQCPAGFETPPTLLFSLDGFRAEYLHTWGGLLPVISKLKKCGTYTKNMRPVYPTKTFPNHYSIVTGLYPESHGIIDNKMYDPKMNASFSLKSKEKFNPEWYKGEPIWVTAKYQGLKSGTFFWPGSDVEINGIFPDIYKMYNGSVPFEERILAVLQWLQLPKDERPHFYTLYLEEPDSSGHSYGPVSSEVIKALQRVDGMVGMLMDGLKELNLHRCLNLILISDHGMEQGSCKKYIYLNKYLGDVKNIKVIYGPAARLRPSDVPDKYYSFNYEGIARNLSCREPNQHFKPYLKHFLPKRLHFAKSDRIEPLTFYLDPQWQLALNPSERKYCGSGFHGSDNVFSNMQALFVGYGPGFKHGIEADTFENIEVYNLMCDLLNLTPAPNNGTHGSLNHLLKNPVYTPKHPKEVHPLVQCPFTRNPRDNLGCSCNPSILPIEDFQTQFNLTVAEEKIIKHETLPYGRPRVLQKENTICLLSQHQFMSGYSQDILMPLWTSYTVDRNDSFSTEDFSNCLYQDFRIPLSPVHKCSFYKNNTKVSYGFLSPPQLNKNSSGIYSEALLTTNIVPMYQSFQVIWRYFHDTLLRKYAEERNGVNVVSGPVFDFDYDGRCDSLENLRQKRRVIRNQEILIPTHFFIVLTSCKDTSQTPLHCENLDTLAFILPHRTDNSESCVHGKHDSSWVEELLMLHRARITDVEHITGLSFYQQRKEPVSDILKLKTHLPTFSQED
Procedure: ENPP1 was mainly expressed on the surface of cell membranes and could hydrolyze 2′3′-cGAMP into 5′-GMP and 5′-AMP. Similarly, ENPP1 could also hydrolyze the synthetic phosphate TMP-pNP, generating nucleotide-5′-monophosphate and the chromogenic product p-nitrophenol. Therefore, TMP-pNP was used as a substrate to reflect the enzyme activity of ENPP1 in cultured MDA-MB-231 cells. The amount of p-nitrophenol formed in the culture medium was determined by absorbance at 405 nim, which was directly proportional to the activity of ENPP1.
MDA-MB-231 cells was seeded with a density of 6000 per well in 384-well plate and cultured overnight (about 18 hrs) at 37° C. The compound was diluted into a 50× serial gradient dilution using an assay buffer (250 mM NaCl, 50 mM Tris, pH=9.5), starting at 500 μM, and diluted in a 4-fold serial gradient to make 10 concentration points. The cell culture medium was removed, and 10 μL of gradient concentrations of compounds were added to each well of the 384-well assay plate (final concentration: starting at 10 μM, 4-fold serial gradient dilution, with 10 concentration points). Then, 10 μL of 1 mM TMP-pNP (2× final concentration) dissolved in the assay buffer was added to the well. After incubating at 37° C. for 3 hrs, the OD405 nm value was read by the microplate reader. The percentage inhibition was calculated using the formula: % Inhibition Rate=(ODhigh signal control−ODsample well)/(ODhigh signal control−ODlow signal control)*100. The IC50 value was calculated using four-parameter fit. The high signal control was the DMSO group without inhibitors, and the low signal control was the blank control group.

[2] = Pharmacokinetics in mice, compound concentration by LC-MS/MS; assay type: in vivo, CD-1 male mice; conditions: for AUC(0-t): read-out: AUC0-24 h; for Vd: read-out: VSS
[3] = male, CD-1, mouse, plasma, 2 mg/kg, IV, 2 mpk
[4] = male, CD-1, mouse, plasma, 10 mg/kg, PO, 10 mpk
[5] = male, CD-1, mouse, plasma, 10 mg/kg, PO, 10 mpk vs IV, 2 mpk
[6] = male, CD-1, mouse, plasma, 10 mg/kg, PO, 10 mpk, read-out: Cmax
[7] = male, CD-1, mouse, plasma, 10 mg/kg, PO, 10 mpk, read-out: Tmax

Chain of hENPP1 enzyme (P22413 whole entry): as above

COc1ccc2c3c(cnc2n1)COC(=O)N3Cc1ccc(S(N)(=O)=O)cc1 [Compound 067, 4-((8-methoxy-2-oxo-2H-[1,3]oxazino[5,4-c][1,8]naphthyridin-1(4H)-yl)methyl)benzenesulfonamide]
IC50 (hENPP1 enzyme): 0.2 to 2 nM

COc1ccc2c3c(cnc2n1)N(C(=O)OC(C)(C)C)CCN3Cc1c(F)cc(S(N)(=O)=O)cc1F [Compound 050, tert-butyl 1-(2,6-difluoro-4-sulfamoylbenzyl)-8-methoxy-2,3-dihydropyrazino[2,3-c][1,8]naphthyridine-4(1H)-carboxylate]
IC50 (hENPP1 enzyme): 0.2 to 2 nM

COc1ccc2c(ncc3c2n(Cc2c(F)cc(S(N)(=O)=O)cc2F)c(=O)n3CC(F)(F)F)n1 [ZX-131, reference compound]
IC50 (hENPP1 enzyme): 0.1 to 0.2 nM
EC50 [1]: 0.5 to 2 nM
AUC0-24 h ([2]; IV, 2 mpk): 4419 ng·h/mL
CL ([2]; IV, 2 mpk): 0.432 L/h/kg
T1/2 ([2]; IV, 2 mpk): 6.01 h
VSS ([2]; IV, 2 mpk): 3.212 L/kg
AUC0-24 h ([2]; PO, 10 mpk): 3274 ng·h/mL
Cmax ([2]; PO, 10 mpk): 247 ng/mL
T1/2 ([2]; PO, 10 mpk): 7.78 h
Tmax ([2]; PO, 10 mpk): 360 min
F % ([2]; PO, 10 mpk vs IV, 2 mpk): 15%

COc1cc2ncc3c(c2cc1F)N(Cc1c(F)cc(S(N)(=O)=O)cc1F)C(=O)OC3 [Compound 048, 3,5-difluoro-4-((9-fluoro-8-methoxy-2-oxo-2H-[1,3]oxazino[5,4-c]quinolin-1(4H)-yl)methyl)benzenesulfonamide]
IC50 (hENPP1 enzyme): < 0.1 nM
EC50 [1]: < 0.5 nM
clearance [2, 3]: 1.92 mL/min/kg
half-life [2, 3]: 184 min
AUC(0-t) [2, 3]: 18300 ng·h/mL
Vd [2, 3]: 0.46 L/kg
half-life [2, 4]: 167 min
bioavailability [2, 5]: 38.1%
AUC(0-t) [2, 4]: 34800 ng·h/mL
Cmax [2, 6]: 4870 ng/mL
Tmax [2, 7]: 35 min

COc1ccc2c3c(cnc2n1)COC(=O)N3Cc1c(F)cc(S(N)(=O)=O)cc1F [Compound 006, 3,5-difluoro-4-((8-methoxy-2-oxo-2H-[1,3]oxazino[5,4-c][1,8]naphthyridin-1(4H)-yl)methyl)benzenesulfonamide]
IC50 (hENPP1 enzyme): 0.1 to 0.2 nM
EC50 [1]: < 0.5 nM
bioavailability [2, 5]: 92.6%

COc1ccc2c3c(cnc2c1)COC(=O)N3Cc1c(F)cc(S(N)(=O)=O)cc1F [Compound 030, 3,5-difluoro-4-((8-methoxy-2-oxo-2H-[1,3]oxazino[5,4-c]quinolin-1(4H)-yl)methyl)benzenesulfonamide]
IC50 (hENPP1 enzyme): 0.1 to 0.2 nM

COc1ccc2c(ncc3c(=O)[nH]c(=O)n(Cc4c(F)cc(S(N)(=O)=O)cc4F)c32)n1 [Compound 017]
IC50 (hENPP1 enzyme): 0.2 to 2 nM

COc1cc2ncc3c(c2cc1F)N(Cc1c(F)cc(S(N)(=O)=O)cc1F)C(=O)NC3 [Compound 007, 3,5-difluoro-4-((9-fluoro-8-methoxy-2-oxo-3,4-dihydropyrimido[5,4-c]quinolin-1(2H)-yl)methyl)benzenesulfonamide]
IC50 (hENPP1 enzyme): 0.1 to 0.2 nM
EC50 [1]: < 0.5 nM

COc1ccc2c3c(cnc2n1)COC(=O)N3Cc1ccc(S(N)(=O)=O)cn1 [Compound 070, 6-((8-methoxy-2-oxo-2H-[1,3]oxazino[5,4-c][1,8]naphthyridin-1(4H)-yl)methyl)pyridine-3-sulfonamide]
IC50 (hENPP1 enzyme): 0.1 to 0.2 nM

COc1ccc2c3c(cnc2n1)CN(C1CC1)C(=O)N3Cc1c(F)cc(S(N)(=O)=O)cc1F [Compound 074]
IC50 (hENPP1 enzyme): 0.1 to 0.2 nM

COc1ccc2c(ncc3[nH]c(=O)c(=O)n(Cc4c(F)cc(S(N)(=O)=O)cc4F)c32)n1 [Compound 062, 3,5-difluoro-4-((8-methoxy-2,3-dioxo-3,4-dihydropyrazino[2,3-c][1,8]naphthyridine-1(2H)-yl)methyl)benzenesulfonamide]
IC50 (hENPP1 enzyme): < 0.1 nM
EC50 [1]: < 0.5 nM

COc1ccc2c3c(cnc2c1)N(C(=O)CO)CC(=O)N3Cc1c(F)cc(S(N)(=O)=O)cc1F [Compound 072]
IC50 (hENPP1 enzyme): 0.2 to 2 nM

COc1cnc2c(c1)ncc1[nH]c(=O)c(=O)n(Cc3c(F)cc(S(N)(=O)=O)cc3F)c12 [Compound 076]
IC50 (hENPP1 enzyme): 0.1 to 0.2 nM

COc1ccc2c3c(cnc2n1)NCC(=O)N3Cc1c(F)cc(S(N)(=O)=O)cc1F [Compound 051]
IC50 (hENPP1 enzyme): 0.2 to 2 nM

COc1ccc2c3c(cnc2n1)NCCN3Cc1c(F)cc(S(N)(=O)=O)cc1F [Compound 066, 3,5-difluoro-4-((8-methoxy-3,4-dihydropyrazino[2,3-c][1,8]naphthyridine-1(2H)-yl)methyl)benzenesulfonamide]
IC50 (hENPP1 enzyme): 0.2 to 2 nM

COc1cc2ncc3c(c2cc1OC)N(Cc1c(F)cc(S(N)(=O)=O)cc1F)C(=O)OC3 [Compound 031, 4-((8,9-dimethoxy-2-oxo-2H-[1,3]oxazino[5,4-c]quinolin-1(4H)-yl)methyl)-3,5-difluorobenzenesulfonamide]
IC50 (hENPP1 enzyme): 0.2 to 2 nM

COc1ccc2c3c(cnc2n1)CCC(=O)N3Cc1c(F)cc(S(N)(=O)=O)cc1F [Compound 054, 3,5-difluoro-4-((8-methoxy-2-oxo-3,4-dihydropyrido[2,3-h][1,6]naphthyridine-1(2H)-yl)methyl)benzenesulfonamide]
IC50 (hENPP1 enzyme): < 0.1 nM
clearance [2, 3]: 4.1 mL/min/kg
half-life [2, 3]: 211 min
AUC(0-t) [2, 3]: 8090 ng·h/mL
Vd [2, 3]: 0.826 L/kg
half-life [2, 4]: 203 min
bioavailability [2, 5]: 49.7%
AUC(0-t) [2, 4]: 20100 ng·h/mL
Cmax [2, 6]: 7900 ng/mL
Tmax [2, 7]: 30 min

COc1nc2ncc3c(c2cc1F)N(Cc1c(F)cc(S(N)(=O)=O)cc1F)C(=O)CN3 [Compound 055]
IC50 (hENPP1 enzyme): 0.1 to 0.2 nM

CCOc1ccc2c(ncc3ncc(=O)n(Cc4c(F)cc(S(N)(=O)=O)cc4F)c32)n1 [Compound 063]
IC50 (hENPP1 enzyme): 0.2 to 2 nM

COc1ccc2c(ncc3ccc(=O)n(Cc4c(F)cc(S(N)(=O)=O)cc4F)c32)n1 [Compound 008, 3,5-difluoro-4-((8-methoxy-2-oxopyrido[2,3-h][1,6]naphthyridine-1(2H)-yl)methyl)benzenesulfonamide]
IC50 (hENPP1 enzyme): 0.1 to 0.2 nM
EC50 [1]: < 0.5 nM
clearance [2, 3]: 4.78 mL/min/kg
half-life [2, 3]: 274 min
AUC(0-t) [2, 3]: 7450 ng·h/mL
Vd [2, 3]: 1.52 L/kg
half-life [2, 4]: 232 min
bioavailability [2, 5]: 20%
AUC(0-t) [2, 4]: 7340 ng·h/mL
Cmax [2, 6]: 798 ng/mL
Tmax [2, 7]: 190 min

COc1ccc2c3c(cnc2n1)CN(CC(F)(F)F)C(=O)N3Cc1c(F)cc(S(N)(=O)=O)cc1F [Compound 056]
IC50 (hENPP1 enzyme): 0.1 to 0.2 nM

COc1ccc2c(ncc3ncc(=O)n(Cc4c(F)cc(S(N)(=O)=O)cc4F)c32)n1 [Compound 002, 3,5-difluoro-4-((8-methoxy-2-oxopyrazino[2,3-c][1,8]naphthyridin-1(2H)-yl)methyl)benzenesulfonamide]
IC50 (hENPP1 enzyme): 0.2 to 2 nM

COc1ccc2c3c(cnc2n1)COC(=O)N3Cc1ccc(S(N)(=O)=O)cc1F [Compound 071, 3-fluoro-4-((8-methoxy-2-oxo-2H-[1,3]oxazino[5,4-c][1,8]naphthyridin-1(4H)-yl)methyl)benzenesulfonamide]
IC50 (hENPP1 enzyme): 0.1 to 0.2 nM

COc1ccc2c3c(cnc2n1)NCC(=O)N3Cc1c(F)cc(S(N)(=O)=O)cc1F [Compound 049, 3,5-difluoro-4-((8-methoxy-2-oxo-3,4-dihydropyrazino[2,3-c][1,8]naphthyridine-1(2H)-yl)methyl)benzenesulfonamide]
IC50 (hENPP1 enzyme): 0.2 to 2 nM

Reference: US20250115609A1, “AROMATIC HETEROCYCLIC COMPOUNDS, PREPARATION METHOD THEREFOR AND USES THEREOF” (Innovstone Therapeutics Limited, priority 2021, published 2025)
